In PubChem BioAssay (NCI):
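These data come from cells grown in 96-well plates and exposed to compound for 48 hours at five concentrations. TGI denotes the concentration required for complete inhibition of growth.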

Legend:
Assay in all cases: inhibition of tumour cell growth, NCI panel, 48 h
OVCAR-3 ovarian = system: OVCAR-3 ovarian
CCRF-CEM leukemia = system: CCRF-CEM leukemia
K-562 leukemia = system: K-562 leukemia
M14 melanoma = system: M14 melanoma
NCI-H522 lung = system: NCI-H522 lung
SK-MEL-28 melanoma = system: SK-MEL-28 melanoma
SF-539 CNS = system: SF-539 CNS
CAKI-1 renal = system: CAKI-1 renal
NCI-H226 lung = system: NCI-H226 lung
HOP-92 NSCLC = system: HOP-92 NSCLC
U251 CNS = system: U251 CNS
OVCAR-8 ovarian = system: OVCAR-8 ovarian
COLO 205 colon = system: COLO 205 colon
MALME-3M melanoma = system: MALME-3M melanoma
MOLT-4 leukemia = system: MOLT-4 leukemia
ACHN renal = system: ACHN renal
SNB-78 CNS = system: SNB-78 CNS
OVCAR-4 ovarian = system: OVCAR-4 ovarian
XF 498 CNS = system: XF 498 CNS
LOX IMVI melanoma = system: LOX IMVI melanoma
SK-MEL-5 melanoma = system: SK-MEL-5 melanoma
LXFL 529 NSCLC = system: LXFL 529 NSCLC
UACC-257 melanoma = system: UACC-257 melanoma
HT29 colon = system: HT29 colon
A549 NSCLC = system: A549 NSCLC
EKVX NSCLC = system: EKVX NSCLC
SK-MEL-2 melanoma = system: SK-MEL-2 melanoma
KM12 colon = system: KM12 colon
RPMI-8226 leukemia = system: RPMI-8226 leukemia
SF-295 CNS = system: SF-295 CNS
KM20L2 colon = system: KM20L2 colon
SF-268 CNS = system: SF-268 CNS
HL-60(TB) leukemia = system: HL-60(TB) leukemia
OVCAR-5 ovarian = system: OVCAR-5 ovarian
HCT-116 colon = system: HCT-116 colon
UACC-62 melanoma = system: UACC-62 melanoma
HCC-2998 colon = system: HCC-2998 colon
786-0 renal = system: 786-0 renal
SW-620 colon = system: SW-620 colon
SNB-75 CNS = system: SNB-75 CNS
TK-10 renal = system: TK-10 renal
M19-MEL melanoma = system: M19-MEL melanoma
IGROV1 ovarian = system: IGROV1 ovarian
HOP-62 NSCLC = system: HOP-62 NSCLC
SK-OV-3 ovarian = system: SK-OV-3 ovarian
DMS 114 small cell lung = system: DMS 114 small cell lung
DLD-1 colon = system: DLD-1 colon
SNB-19 CNS = system: SNB-19 CNS
NCI-H460 lung = system: NCI-H460 lung
NCI-H23 lung = system: NCI-H23 lung
RXF 393 renal = system: RXF 393 renal
A498 renal = system: A498 renal
HCT-15 colon = system: HCT-15 colon
DMS 273 small cell lung = system: DMS 273 small cell lung
SN12C renal = system: SN12C renal
UO-31 renal = system: UO-31 renal
SR leukemia = system: SR leukemia
HOP-18 NSCLC = system: HOP-18 NSCLC

## c1ccc2c(c1)[nH]c1cnc3c4ncccc4[nH]c3c12
OVCAR-3 ovarian
  TGI: > 100 µM
CCRF-CEM leukemia
  TGI: > 100 µM
K-562 leukemia
  TGI: > 100 µM
M14 melanoma
  TGI: > 100 µM
NCI-H522 lung
  TGI: > 100 µM
SK-MEL-28 melanoma
  TGI: > 100 µM
SF-539 CNS
  TGI: > 100 µM
CAKI-1 renal
  TGI: > 100 µM
NCI-H226 lung
  TGI: > 100 µM
HOP-92 NSCLC
  TGI: 79.3 µM
U251 CNS
  TGI: > 100 µM
OVCAR-8 ovarian
  TGI: > 100 µM
COLO 205 colon
  TGI: > 100 µM
MALME-3M melanoma
  TGI: > 100 µM
MOLT-4 leukemia
  TGI: 97.6 µM
ACHN renal
  TGI: > 100 µM
SNB-78 CNS
  TGI: > 100 µM
OVCAR-4 ovarian
  TGI: > 100 µM
XF 498 CNS
  TGI: > 100 µM
LOX IMVI melanoma
  TGI: > 100 µM
SK-MEL-5 melanoma
  TGI: > 100 µM
LXFL 529 NSCLC
  TGI: > 100 µM
UACC-257 melanoma
  TGI: > 100 µM
HT29 colon
  TGI: > 100 µM
A549 NSCLC
  TGI: > 100 µM
EKVX NSCLC
  TGI: > 100 µM
SK-MEL-2 melanoma
  TGI: > 100 µM
KM12 colon
  TGI: > 100 µM
RPMI-8226 leukemia
  TGI: > 100 µM
SF-295 CNS
  TGI: > 100 µM
KM20L2 colon
  TGI: > 100 µM
SF-268 CNS
  TGI: > 100 µM
HL-60(TB) leukemia
  TGI: > 100 µM
OVCAR-5 ovarian
  TGI: > 100 µM
HCT-116 colon
  TGI: > 100 µM
UACC-62 melanoma
  TGI: > 100 µM
HCC-2998 colon
  TGI: > 100 µM
786-0 renal
  TGI: > 100 µM
SW-620 colon
  TGI: > 100 µM
SNB-75 CNS
  TGI: > 100 µM
TK-10 renal
  TGI: > 100 µM
M19-MEL melanoma
  TGI: > 100 µM
IGROV1 ovarian
  TGI: > 100 µM
HOP-62 NSCLC
  TGI: > 100 µM
SK-OV-3 ovarian
  TGI: > 100 µM
DMS 114 small cell lung
  TGI: > 100 µM
DLD-1 colon
  TGI: > 100 µM
SNB-19 CNS
  TGI: > 100 µM
NCI-H460 lung
  TGI: > 100 µM
NCI-H23 lung
  TGI: > 100 µM
RXF 393 renal
  TGI: > 100 µM
A498 renal
  TGI: > 100 µM
HCT-15 colon
  TGI: > 100 µM
DMS 273 small cell lung
  TGI: > 100 µM
SN12C renal
  TGI: > 100 µM
UO-31 renal
  TGI: > 100 µM

## C/C(NNC(=O)c1ccccc1O)=C1\C=Nc2ccccc2S1
OVCAR-3 ovarian
  TGI: > 100 µM
CCRF-CEM leukemia
  TGI: > 100 µM
K-562 leukemia
  TGI: > 100 µM
M14 melanoma
  TGI: 31.1 µM
NCI-H522 lung
  TGI: > 100 µM
SK-MEL-28 melanoma
  TGI: > 100 µM
SF-539 CNS
  TGI: 7.81 µM
SR leukemia
  TGI: > 100 µM
CAKI-1 renal
  TGI: > 100 µM
NCI-H226 lung
  TGI: 33.1 µM
U251 CNS
  TGI: > 100 µM
HOP-18 NSCLC
  TGI: 49.6 µM
OVCAR-8 ovarian
  TGI: > 100 µM
MALME-3M melanoma
  TGI: 27.6 µM
MOLT-4 leukemia
  TGI: > 100 µM
ACHN renal
  TGI: > 100 µM
SNB-78 CNS
  TGI: > 100 µM
OVCAR-4 ovarian
  TGI: > 100 µM
XF 498 CNS
  TGI: > 100 µM
LOX IMVI melanoma
  TGI: > 100 µM
SK-MEL-5 melanoma
  TGI: > 100 µM
LXFL 529 NSCLC
  TGI: > 100 µM
UACC-257 melanoma
  TGI: > 100 µM
HT29 colon
  TGI: > 100 µM
A549 NSCLC
  TGI: 28.2 µM
EKVX NSCLC
  TGI: > 100 µM
SK-MEL-2 melanoma
  TGI: 6.79 µM
KM12 colon
  TGI: > 100 µM
RPMI-8226 leukemia
  TGI: > 100 µM
SF-295 CNS
  TGI: > 100 µM
KM20L2 colon
  TGI: > 100 µM
SF-268 CNS
  TGI: > 100 µM
HL-60(TB) leukemia
  TGI: 41.9 µM
OVCAR-5 ovarian
  TGI: > 100 µM
HCT-116 colon
  TGI: > 100 µM
UACC-62 melanoma
  TGI: 9.61 µM
HCC-2998 colon
  TGI: 7.45 µM
786-0 renal
  TGI: 29.3 µM
SW-620 colon
  TGI: > 100 µM
SNB-75 CNS
  TGI: 43.8 µM
TK-10 renal
  TGI: > 100 µM
M19-MEL melanoma
  TGI: > 100 µM
IGROV1 ovarian
  TGI: > 100 µM
HOP-62 NSCLC
  TGI: > 100 µM
SK-OV-3 ovarian
  TGI: > 100 µM
DLD-1 colon
  TGI: > 100 µM
SNB-19 CNS
  TGI: > 100 µM
NCI-H460 lung
  TGI: 24.7 µM
NCI-H23 lung
  TGI: > 100 µM
A498 renal
  TGI: > 100 µM
DMS 273 small cell lung
  TGI: > 100 µM
SN12C renal
  TGI: 55.6 µM
UO-31 renal
  TGI: 5.68 µM
